This is an account of results in patent US11965039B2, “Compstatin analogues and their medical uses” (priority 2018, dated 2024).

Starred links: 1 amine or outer side, 2 acyl side, 3 side chain; linkers in the order of their positions; H or OH if unused. Positions of bridges follow the written chain, without caps; N, C: chain ends. Non-standard residues stand in square brackets, D forms with d. Residues, ends and D or L forms follow the SMILES beside them. Groups on a side chain read outwards from the residue. *: point of attachment. (Piperazine-1-yl)‑acetyl = piperazin-1-yl-acetyl spacer, O=C(CN1CCN([*:1])CC1)[*:2]; C20 diacid = O=C(O)CCCCCCCCCCCCCCCCCCC(=O)*; C18 diacid = O=C(O)CCCCCCCCCCCCCCCCC(=O)*; C16 diacid = O=C(O)CCCCCCCCCCCCCCC(=O)*; γGlu = O=C(O)[C@H](CCC(=O)[*:2])N[*:1]; 2Nal = N[C@@H](Cc1ccc2ccccc2c1)C(=O)O; AEEA = NCCOCCOCC(=O)O; Sar = CNCC(=O)O

The subject of data set [1] is classical complement pathway. Put plainly: In vitro haemolysis assay (inhibition of classical complement pathway). Format: cell-based, human. As to conditions: human serum, sensitized sheep red blood cells; Table 3, given as upper bounds; read-out: IC50, inhibition of hemolysis. In short, it runs like this:
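Compound dilutions preincubated 15 min at room temperature with diluted human serum (titrated per batch for 70-90% maximal haemolysis), then antibody-sensitized sheep RBC (10^7/well) added for 30 min at 37 °C in Tris/casein buffer, pH 7.4. Stopped with EDTA; haemolysis read at 405 nm; IC50 by 4PL fit.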

Data set [2] in a line: Solubility test at 10 mg/mL (visual inspection and light scattering). Format: physicochemical. As to conditions: for Solubility, Condition 1: Acetate pH 4; for Solubility, Condition 2: Acetate pH 5; for Solubility, Condition 3: Phosphate pH 6; for Solubility, Condition 4: Phosphate pH 7; for Solubility, Condition 5: Phosphate pH 7.5.
Data set [3] concerns the target Human C3 (Complement tech cat #A113c) (human, UniProt P01024 23-1663). In words: cell-based or functional assay.

Sequence of Human C3 (Complement tech cat #A113c) (P01024 23-1663 limits assumed): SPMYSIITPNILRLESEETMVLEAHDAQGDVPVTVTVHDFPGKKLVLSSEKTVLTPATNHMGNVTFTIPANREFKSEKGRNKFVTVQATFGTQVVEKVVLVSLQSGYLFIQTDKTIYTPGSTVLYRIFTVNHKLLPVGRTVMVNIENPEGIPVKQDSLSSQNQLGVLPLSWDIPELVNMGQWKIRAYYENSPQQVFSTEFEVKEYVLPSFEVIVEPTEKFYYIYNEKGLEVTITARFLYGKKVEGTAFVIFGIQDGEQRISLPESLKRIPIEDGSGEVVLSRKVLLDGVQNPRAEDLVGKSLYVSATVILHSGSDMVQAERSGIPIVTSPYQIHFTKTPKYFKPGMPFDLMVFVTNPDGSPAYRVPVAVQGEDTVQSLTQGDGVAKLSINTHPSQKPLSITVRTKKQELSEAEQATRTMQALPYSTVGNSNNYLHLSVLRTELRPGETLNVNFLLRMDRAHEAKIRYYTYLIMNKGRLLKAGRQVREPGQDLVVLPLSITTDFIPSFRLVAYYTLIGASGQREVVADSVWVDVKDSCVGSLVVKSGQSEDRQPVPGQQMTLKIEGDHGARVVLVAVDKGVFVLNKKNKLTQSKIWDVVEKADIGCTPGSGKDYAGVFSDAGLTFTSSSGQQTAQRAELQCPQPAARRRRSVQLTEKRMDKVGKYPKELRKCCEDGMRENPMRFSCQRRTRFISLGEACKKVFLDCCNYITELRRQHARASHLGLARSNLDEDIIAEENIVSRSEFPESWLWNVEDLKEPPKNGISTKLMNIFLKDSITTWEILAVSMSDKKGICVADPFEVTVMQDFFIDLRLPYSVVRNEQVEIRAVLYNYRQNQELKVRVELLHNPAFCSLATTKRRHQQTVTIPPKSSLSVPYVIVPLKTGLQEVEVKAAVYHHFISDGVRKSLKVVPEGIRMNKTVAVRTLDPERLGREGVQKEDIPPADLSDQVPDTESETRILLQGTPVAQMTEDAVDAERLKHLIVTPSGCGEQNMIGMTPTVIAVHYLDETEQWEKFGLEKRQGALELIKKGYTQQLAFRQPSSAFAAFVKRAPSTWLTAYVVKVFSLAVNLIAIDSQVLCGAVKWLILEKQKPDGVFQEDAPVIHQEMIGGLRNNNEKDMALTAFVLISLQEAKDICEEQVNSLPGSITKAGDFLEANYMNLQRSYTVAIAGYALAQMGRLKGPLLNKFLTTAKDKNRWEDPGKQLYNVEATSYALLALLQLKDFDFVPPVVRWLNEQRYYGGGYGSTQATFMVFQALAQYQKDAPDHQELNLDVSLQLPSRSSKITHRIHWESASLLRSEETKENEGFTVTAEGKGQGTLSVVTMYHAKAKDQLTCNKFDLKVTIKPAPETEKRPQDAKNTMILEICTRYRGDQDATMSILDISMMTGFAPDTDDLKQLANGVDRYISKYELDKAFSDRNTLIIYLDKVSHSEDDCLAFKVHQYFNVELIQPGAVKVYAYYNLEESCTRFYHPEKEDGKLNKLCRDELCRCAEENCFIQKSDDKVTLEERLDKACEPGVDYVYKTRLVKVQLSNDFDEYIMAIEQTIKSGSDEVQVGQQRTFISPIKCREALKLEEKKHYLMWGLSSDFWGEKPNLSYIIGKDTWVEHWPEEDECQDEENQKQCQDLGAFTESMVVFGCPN

As for `CC[C@H](C)[C@@H]1NC(=O)[C@@H](NC(=O)[C@H](Cc2ccc(O)cc2)NC(C)=O)CSSC[C@@H](C(=O)N[C@H](C(=O)NCC(=O)N[C@@H](C)C(=O)N[C@@H](CCC(=O)O)C(=O)N[C@@H](CO)C(N)=O)[C@@H](C)O)NC(=O)[C@H](CCCNC(=N)N)NC(=O)[C@H](Cc2c[nH]cn2)NC(=O)[C@H](CCC(=O)O)NC(=O)CNC(=O)[C@H](Cc2c[nH]c3ccccc23)NC(=O)[C@H](CC(=O)O)NC(=O)[C@H](CCC(N)=O)NC(=O)[C@H](Cc2ccc3ccccc3c2)NC1=O` [Compound 65] (Ac-YCI[2Nal]QDWGEHRCTGAES-NH2; disulfide 2-12), in data set [1], the IC50 (usually the point on the concentration scale where inhibition reaches its midpoint) was below 100 nM. Also, in data set [2], the “Solubility, Condition 1” value is “− (“−” denotes lack of solubility at the given condition, as UV absorbance at 340 nm exceeds 0.1 AU and/or it is visibly turbid or contains particles)”; the “Solubility, Condition 2” value is “− (“−” denotes lack of solubility at the given condition, as UV absorbance at 340 nm exceeds 0.1 AU and/or it is visibly turbid or contains particles)”; the “Solubility, Condition 3” value was “+ (“+” denotes solubility at the given condition, as determined by UV absorbance being less than 0.1 AU at 340 nm and the sample being clear when manually inspected)”; the “Solubility, Condition 4” value is “+ (“+” denotes solubility at the given condition, as determined by UV absorbance being less than 0.1 AU at 340 nm and the sample being clear when manually inspected)”. Moreover, in data set [2], the “Solubility, Condition 5” value is “+ (“+” denotes solubility at the given condition, as determined by UV absorbance being less than 0.1 AU at 340 nm and the sample being clear when manually inspected)”.
Turning to `CC[C@H](C)[C@H](NC(=O)[C@H](C)NC(=O)[C@H](CO)NC(=O)CNC(=O)[C@H](CCC(=O)O)NC(C)=O)C(=O)N[C@H]1CSSC[C@@H](C(=O)N(C)CC(=O)N[C@@H](CCC(=O)O)C(N)=O)NC(=O)[C@H](CCCNC(=N)N)NC(=O)[C@H](Cc2c[nH]cn2)NC(=O)[C@H](CCC(=O)O)NC(=O)CNC(=O)[C@H](Cc2c[nH]c3ccccc23)NC(=O)[C@H](CC(=O)O)NC(=O)[C@H](CCC(N)=O)NC(=O)[C@H](Cc2ccc3ccccc3c2)NC(=O)[C@H]([C@@H](C)CC)NC1=O` [Compound 50] (Ac-EGSAICI[2Nal]QDWGEHRC[Sar]E-NH2; disulfide 6-16), the IC50 in data set [1] is below 100 nM. In data set [2], the “Solubility, Condition 1” value is recorded as “− (“−” denotes lack of solubility at the given condition, as UV absorbance at 340 nm exceeds 0.1 AU and/or it is visibly turbid or contains particles)”; the “Solubility, Condition 2” value was “− (“−” denotes lack of solubility at the given condition, as UV absorbance at 340 nm exceeds 0.1 AU and/or it is visibly turbid or contains particles)”; the “Solubility, Condition 3” value is “+ (“+” denotes solubility at the given condition, as determined by UV absorbance being less than 0.1 AU at 340 nm and the sample being clear when manually inspected)”; the “Solubility, Condition 4” value is “+ (“+” denotes solubility at the given condition, as determined by UV absorbance being less than 0.1 AU at 340 nm and the sample being clear when manually inspected)”. Also, the “Solubility, Condition 5” value in data set [2] was “+ (“+” denotes solubility at the given condition, as determined by UV absorbance being less than 0.1 AU at 340 nm and the sample being clear when manually inspected)”.
For the molecule `CC[C@H](C)[C@H](NC(=O)[C@H](C)NC(=O)[C@H](CO)NC(=O)CNC(=O)[C@H](CCC(=O)O)NC(C)=O)C(=O)N[C@H]1CSSC[C@@H](C(=O)N(C)CC(=O)N[C@@H](CCC(=O)O)C(=O)NCC(=O)N[C@@H](CCC(=O)O)C(N)=O)NC(=O)[C@H](CCCNC(=N)N)NC(=O)[C@H](Cc2c[nH]cn2)NC(=O)[C@H](CCC(=O)O)NC(=O)CNC(=O)[C@H](Cc2c[nH]c3ccccc23)NC(=O)[C@H](CC(=O)O)NC(=O)[C@H](CCC(N)=O)NC(=O)[C@H](Cc2c[nH]c3ccccc23)NC(=O)[C@H]([C@@H](C)CC)NC1=O` [Compound 44] (Ac-EGSAICIWQDWGEHRC[Sar]EGE-NH2; disulfide 6-16), the IC50 in data set [1] is below 250 nM. Moreover, in data set [2], the “Solubility, Condition 1” value was “− (“−” denotes lack of solubility at the given condition, as UV absorbance at 340 nm exceeds 0.1 AU and/or it is visibly turbid or contains particles)”; the “Solubility, Condition 2” value is listed as “− (“−” denotes lack of solubility at the given condition, as UV absorbance at 340 nm exceeds 0.1 AU and/or it is visibly turbid or contains particles)”; the “Solubility, Condition 3” value was “+ (“+” denotes solubility at the given condition, as determined by UV absorbance being less than 0.1 AU at 340 nm and the sample being clear when manually inspected)”; the “Solubility, Condition 4” value was “+ (“+” denotes solubility at the given condition, as determined by UV absorbance being less than 0.1 AU at 340 nm and the sample being clear when manually inspected)”. The “Solubility, Condition 5” value in data set [2] was “+ (“+” denotes solubility at the given condition, as determined by UV absorbance being less than 0.1 AU at 340 nm and the sample being clear when manually inspected)”.
As for {C16 diacid}-ESSAICIWQDWGEHRCTEGE-NH2 (disulfide 6-16) [Compound 99], the “inhibition of hemolysis IC50” value in data set [3] is below 250 nM.

B1: Compound 100 (peptide)
peptide: Ac-K([AEEA-AEEA-γGlu-C16 diacid])GSAICIWQDWGEHRCTEGE-NH2
modifications: disulfide 6-16
SMILES: CC[C@H](C)[C@H](NC(=O)[C@H](C)NC(=O)[C@H](CO)NC(=O)CNC(=O)[C@H](CCCCNC(=O)COCCOCCNC(=O)COCCOCCNC(=O)CC[C@H](NC(=O)CCCCCCCCCCCCCCC(=O)O)C(=O)O)NC(C)=O)C(=O)N[C@H]1CSSC[C@@H](C(=O)N[C@H](C(=O)N[C@@H](CCC(=O)O)C(=O)NCC(=O)N[C@@H](CCC(=O)O)C(N)=O)[C@@H](C)O)NC(=O)[C@H](CCCNC(=N)N)NC(=O)[C@H](Cc2c[nH]cn2)NC(=O)[C@H](CCC(=O)O)NC(=O)CNC(=O)[C@H](Cc2c[nH]c3ccccc23)NC(=O)[C@H](CC(=O)O)NC(=O)[C@H](CCC(N)=O)NC(=O)[C@H](Cc2c[nH]c3ccccc23)NC(=O)[C@H]([C@@H](C)CC)NC1=O
For the molecule B1, in data set [3], the “inhibition of hemolysis IC50” value is below 500 nM.
On the same count and under the same terms, as for Ac-ICIWQDWGEHRCTEGK([AEEA-AEEA-(Piperazine-1-yl)‑acetyl-C16 diacid])-NH2 (disulfide 2-12) [Compound 95], the figure is below 500 nM.

B2: Compound 98 (peptide)
peptide: Ac-ICIWQDWGEHRCTEGK([AEEA-AEEA-γGlu-C20 diacid])-NH2
modifications: disulfide 2-12
SMILES: CC[C@H](C)[C@H](NC(C)=O)C(=O)N[C@H]1CSSC[C@@H](C(=O)N[C@H](C(=O)N[C@@H](CCC(=O)O)C(=O)NCC(=O)N[C@@H](CCCCNC(=O)COCCOCCNC(=O)COCCOCCNC(=O)CC[C@H](NC(=O)CCCCCCCCCCCCCCCCCCC(=O)O)C(=O)O)C(N)=O)[C@@H](C)O)NC(=O)[C@H](CCCNC(=N)N)NC(=O)[C@H](Cc2c[nH]cn2)NC(=O)[C@H](CCC(=O)O)NC(=O)CNC(=O)[C@H](Cc2c[nH]c3ccccc23)NC(=O)[C@H](CC(=O)O)NC(=O)[C@H](CCC(N)=O)NC(=O)[C@H](Cc2c[nH]c3ccccc23)NC(=O)[C@H]([C@@H](C)CC)NC1=O
With B2, the “inhibition of hemolysis IC50” value in data set [3] is below 500 nM.

B3: Compound 96 (peptide)
peptide: Ac-ICIWQDWGEHRCTEGK([AEEA-AEEA-γGlu-C18 diacid])-NH2
modifications: disulfide 2-12
SMILES: CC[C@H](C)[C@H](NC(C)=O)C(=O)N[C@H]1CSSC[C@@H](C(=O)N[C@H](C(=O)N[C@@H](CCC(=O)O)C(=O)NCC(=O)N[C@@H](CCCCNC(=O)COCCOCCNC(=O)COCCOCCNC(=O)CC[C@H](NC(=O)CCCCCCCCCCCCCCCCC(=O)O)C(=O)O)C(N)=O)[C@@H](C)O)NC(=O)[C@H](CCCNC(=N)N)NC(=O)[C@H](Cc2c[nH]cn2)NC(=O)[C@H](CCC(=O)O)NC(=O)CNC(=O)[C@H](Cc2c[nH]c3ccccc23)NC(=O)[C@H](CC(=O)O)NC(=O)[C@H](CCC(N)=O)NC(=O)[C@H](Cc2c[nH]c3ccccc23)NC(=O)[C@H]([C@@H](C)CC)NC1=O
Regarding B3, the “inhibition of hemolysis IC50” value in data set [3] is below 1000 nM.

B4: Compound 97 (peptide)
peptide: Ac-ICIWQDWGEHRCTEGEK([AEEA-AEEA-γGlu-C18 diacid])-NH2
modifications: disulfide 2-12
SMILES: CC[C@H](C)[C@H](NC(C)=O)C(=O)N[C@H]1CSSC[C@@H](C(=O)N[C@H](C(=O)N[C@@H](CCC(=O)O)C(=O)NCC(=O)N[C@@H](CCC(=O)O)C(=O)N[C@@H](CCCCNC(=O)COCCOCCNC(=O)COCCOCCNC(=O)CC[C@H](NC(=O)CCCCCCCCCCCCCCCCC(=O)O)C(=O)O)C(N)=O)[C@@H](C)O)NC(=O)[C@H](CCCNC(=N)N)NC(=O)[C@H](Cc2c[nH]cn2)NC(=O)[C@H](CCC(=O)O)NC(=O)CNC(=O)[C@H](Cc2c[nH]c3ccccc23)NC(=O)[C@H](CC(=O)O)NC(=O)[C@H](CCC(N)=O)NC(=O)[C@H](Cc2c[nH]c3ccccc23)NC(=O)[C@H]([C@@H](C)CC)NC1=O
As for B4, in data set [3], the “inhibition of hemolysis IC50” value was below 250 nM.

B5: Compound 94 (peptide)
peptide: Ac-ICIWQDWGEHRCTEGEK([AEEA-AEEA-γGlu-C16 diacid])-NH2
modifications: disulfide 2-12
SMILES: CC[C@H](C)[C@H](NC(C)=O)C(=O)N[C@H]1CSSC[C@@H](C(=O)N[C@H](C(=O)N[C@@H](CCC(=O)O)C(=O)NCC(=O)N[C@@H](CCC(=O)O)C(=O)N[C@@H](CCCCNC(=O)COCCOCCNC(=O)COCCOCCNC(=O)CC[C@H](NC(=O)CCCCCCCCCCCCCCC(=O)O)C(=O)O)C(N)=O)[C@@H](C)O)NC(=O)[C@H](CCCNC(=N)N)NC(=O)[C@H](Cc2c[nH]cn2)NC(=O)[C@H](CCC(=O)O)NC(=O)CNC(=O)[C@H](Cc2c[nH]c3ccccc23)NC(=O)[C@H](CC(=O)O)NC(=O)[C@H](CCC(N)=O)NC(=O)[C@H](Cc2c[nH]c3ccccc23)NC(=O)[C@H]([C@@H](C)CC)NC1=O
As to B5, the “inhibition of hemolysis IC50” value in data set [3] was below 500 nM.
